Earlier results in PMC8043539 (Journal of Enzyme Inhibition and Medicinal Chemistry, 2021).

Target: Sapp1p
Conditions: inhibition of Sapp1p from C. parapsilosis
In the case of “isovaleric acid-valine-valine-statine-alanine-statine [Pepstatin A, reference compound]”, the Ki is given as 0.3 nM.
In the case of CC(C)[C@H](NC(=O)OC(C)(C)C)C(=O)N[C@H](C(=O)N[C@@H](Cc1ccccc1)[C@@H](O)CC(=O)N[C@@H](C)C(=O)N[C@@H](Cc1ccccc1)[C@@H](O)CC(N)=O)C(C)C [KB70, tert-butyl-oxycarbonyl-valine-valine-phenylstatine-alanine-phenylstatine-NH2], the Ki is given as 0.1 nM.
For COC(=O)[C@H](C)NC(=O)C[C@H](O)[C@H](Cc1ccccc1)NC(=O)[C@@H](NC(=O)[C@@H](NC(=O)OC(C)(C)C)C(C)C)C(C)C [KB74, tert-butyl-oxycarbonyl-valine-valine-phenylstatine-alanine-OMe], the Ki is listed as 14.6 nM.
